Measured values reported in patent US7687484B2, “Transporter enhanced corticosteroid activity” (priority 2006, dated 2010).
“Also recorded” adds a separate entry of the source. Read-outs that look alike come from different tables or passages of the source.

Key:
[1] = logP reported in literature; cited from earlier work
[2] = molecular target: T1, glucocorticoid receptor (Homo sapiens, UniProt P04150); settings: relative to dexamethasone = 100; average of all values if multiple available; cited from earlier work
T1 sequence (P04150 1-777): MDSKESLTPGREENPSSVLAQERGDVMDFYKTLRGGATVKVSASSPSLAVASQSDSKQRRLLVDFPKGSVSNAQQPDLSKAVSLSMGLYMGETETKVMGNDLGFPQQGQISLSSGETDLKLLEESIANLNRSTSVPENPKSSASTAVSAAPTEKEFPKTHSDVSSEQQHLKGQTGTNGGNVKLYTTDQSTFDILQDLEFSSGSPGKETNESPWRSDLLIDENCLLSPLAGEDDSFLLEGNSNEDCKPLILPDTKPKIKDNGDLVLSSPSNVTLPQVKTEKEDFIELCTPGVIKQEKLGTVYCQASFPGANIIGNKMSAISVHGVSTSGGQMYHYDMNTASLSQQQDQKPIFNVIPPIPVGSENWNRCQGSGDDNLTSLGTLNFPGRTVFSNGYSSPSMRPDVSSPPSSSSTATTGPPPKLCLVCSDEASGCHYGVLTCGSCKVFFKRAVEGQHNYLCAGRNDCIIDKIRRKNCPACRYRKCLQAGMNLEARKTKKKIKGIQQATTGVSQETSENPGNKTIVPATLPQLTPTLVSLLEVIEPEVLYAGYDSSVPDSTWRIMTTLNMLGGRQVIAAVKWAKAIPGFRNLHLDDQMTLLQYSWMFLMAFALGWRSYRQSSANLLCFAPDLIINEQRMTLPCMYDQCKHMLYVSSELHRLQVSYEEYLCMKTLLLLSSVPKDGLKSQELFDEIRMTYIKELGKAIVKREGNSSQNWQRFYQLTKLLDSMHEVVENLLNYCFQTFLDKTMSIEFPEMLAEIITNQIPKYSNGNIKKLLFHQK

[3] = molecular target: T2, Corticosteroid Binding Globulin (CBG), transcortin (Homo sapiens, UniProt P08185); settings: cited from earlier work; for Class: CBG binding activity class
T2 sequence (P08185 23-405): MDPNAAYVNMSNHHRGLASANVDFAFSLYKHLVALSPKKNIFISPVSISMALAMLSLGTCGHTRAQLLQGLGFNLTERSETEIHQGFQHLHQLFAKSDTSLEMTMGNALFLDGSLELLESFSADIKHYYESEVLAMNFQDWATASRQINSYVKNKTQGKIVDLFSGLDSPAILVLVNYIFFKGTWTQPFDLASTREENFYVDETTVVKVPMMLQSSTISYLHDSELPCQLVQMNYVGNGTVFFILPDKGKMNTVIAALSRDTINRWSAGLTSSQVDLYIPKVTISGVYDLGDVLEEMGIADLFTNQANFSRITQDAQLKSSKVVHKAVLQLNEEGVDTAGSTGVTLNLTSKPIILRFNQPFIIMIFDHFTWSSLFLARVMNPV

[4] = molecular target: T3, transcortin (CBG) (Homo sapiens, UniProt P08185); test: Binding of corticosteroids to transcortin: 3H-cortisol competition in charcoal-treated diluted plasma
T3 construct: from tissue; host or cells: plasma from venous blood of healthy volunteers, charcoal-treated, diluted 100-fold
T3 sequence (P08185 23-405): T2 sequence (P08185 23-405)
Description: Experimental procedure: Venous blood was collected from healthy volunteers into heparin-containing tubes (5 Us/100 ml serum) and cells were separated from plasma by centrifugation (1500 g for 15 min). […] Charcoal-treated plasma was diluted 100-fold with binding buffer (10 mM Tris-HCl; 2 mM DTT (dithiotreitol); 1.5 mM EDTA; 0.02 M Na2MoO4; 10% Glycerol; pH 7.4) and was stored aliquoted at −80° C. […] The assay ingredients were mixed and the tubes were incubated for 1 hour on ice. At the end of the incubation, 0.2 ml of charcoal suspension (0.5% Norit A and 0.05% BSA) was added to each tube. The tubes were briefly agitated and incubated for an additional 10 min at 0° C. They were then centrifuged for 10 min at 15 000 g, and the same aliquots from the clear supernatants were quantitatively decanted into counting vials and combined with 3 ml of toluene-based scintillation fluid. […] Specific binding and IC50-values were calculated.

[5] = molecular target: T1, glucocorticoid receptor; test: Relative binding affinity for the glucocorticoid receptor (GCR/GR); settings: GRs were calculated from RBAs; read-out: GR Est. IC50
[6] = test system: forearms of human volunteers; test: Human vasoconstriction (blanching) testing; assay type: in vivo; set-up: key to Vasoconstriction activity (total score of 4 tests): sum of 4 tests, each 0 = normal skin to 4 = very intense pallor
Description: Solutions of LE, HC and PRN (0.1 or 1 mM) alone, or mixtures of LE and HC (0.1+0.1 mM, or 1+1 mM), or LE and PRN (0.1+0.1 mM, or 1+1 mM) were prepared with a vehicle containing absolute ethanol and propylene glycol (9:1). […] After evaporation of ethanol (20 min), the films were applied to the forearms of human volunteers for 4 hours. Subsequently, the vasoconstriction reaction was read and judged by the appearance of pallor at various time intervals after the removal of the discs and films. The grading scale was as follows: 0, normal skin; 1, slight pallor; 2, pallor with at least two corners outlined; 3, even pallor with a clear outlined of the application sites; 4, very intense pallor. Due to the relatively high variations in response between the volunteers, a total score of 4 tests at each time point was taken for the activity evaluation.

[7] = 3 nM 3H-cortisol, 1 hour on ice, plasma diluted 100-fold, read-out: IC50-values (nM) average ± SEM (n)
[8] = estimated, unpublished results Bodor, Kurucz 2006, read-out: CBG Est. IC50

Structure (SMILES)	logP [1]	rBA (relative receptor binding affinity) [2]	IC50 [4, 7] [nM]	IC50 [4, 8] [nM]	also measured
C[C@H]1C[C@H]2[C@@H]3CCC4=CC(=O)C=C[C@]4(C)[C@@]3(F)[C@@H](O)C[C@]2(C)[C@@]1(O)C(=O)CO [Betamethasone]	1.94				
CCCC1O[C@@H]2C[C@H]3[C@@H]4CCC5=CC(=O)C=C[C@]5(C)[C@H]4[C@@H](O)C[C@]3(C)[C@]2(C(=O)CO)O1 (stereo partly shown) [Budesonide, 22R, Budesonide]	3.24				
CCC(=O)O[C@]1(C(=O)CCl)[C@@H](C)C[C@H]2[C@@H]3CCC4=CC(=O)C=C[C@]4(C)[C@@]3(F)[C@@H](O)C[C@@]21C [Clobetasol propionate]	3.83	6300			
C[C@]12C[C@H](O)[C@H]3[C@@H](CCC4=CC(=O)CC[C@@]43C)[C@@H]1CC[C@@H]2C(=O)CO [Corticosterone]	1.94	35			Class [3]: 1; Log 1/K ([3]; CBG binding affinity, literature data): −7.881
C[C@]12CCC(=O)C=C1CCC1C2[C@@H](O)C[C@@]2(C)C1CC[C@]2(O)C(=O)O (stereo partly drawn) [Cortienic acid (CA) GYKI-24805, 11β,17α-dihydroxyandrost-4-en-3-one-17β-carboxylic acid]			117 ± 49	120	IC50 [5]: > 1000 nM
CCOC(=O)[C@@]1(OC(=O)C(Cl)Cl)CC[C@H]2[C@@H]3CCC4=CC(=O)C=C[C@]4(C)[C@H]3[C@@H](O)C[C@@]21C [Etiprednol dicloacetate (BNP-166), Etiprednol dicloacetate]		200	4500 ± 973		
CC1(C)O[C@@H]2C[C@H]3[C@@H]4C[C@H](F)C5=CC(=O)C=C[C@]5(C)[C@H]4[C@@H](O)C[C@]3(C)[C@]2(C(=O)CO)O1 [Flunisolide]	2.28	165			
CCC(=O)O[C@]1(C(=O)SCF)[C@H](C)C[C@H]2[C@@H]3C[C@H](F)C4=CC(=O)C=C[C@]4(C)[C@@]3(F)[C@@H](O)C[C@@]21C [Fluticasone propionate]	4.20			> 10000	
CC(=O)O[C@]1(C(=O)CO)CC[C@H]2[C@@H]3CCC4=CC(=O)CC[C@]4(C)[C@H]3[C@@H](O)C[C@@]21C [Hydrocortisone 17-acetate]		41			
CCCC(=O)O[C@]1(C(=O)CO)CC[C@H]2[C@@H]3CCC4=CC(=O)CC[C@]4(C)[C@H]3[C@@H](O)C[C@@]21C [Hydrocortisone 17-butyrate]		95			
CCC(=O)O[C@]1(C(=O)CO)CC[C@H]2[C@@H]3CCC4=CC(=O)CC[C@]4(C)[C@H]3[C@@H](O)C[C@@]21C [Hydrocortisone 17-propionate]	2.70	79			
C[C@]12CCC(=O)C=C1CCC1C2[C@@H](O)C[C@@]2(C)C1CC[C@]2(O)C(=O)CO (stereo partly shown) [Hydrocortisone (cortisol), hydrocortisone]	1.61		69 ± 8	70	Vasoconstriction activity (total score of 4 tests) ([6]; 0.1 mM, 2 hr after removal, 4 h application): 0; Vasoconstriction activity (total score of 4 tests) ([6]; 0.1 mM, 4 hr after removal): 0; Vasoconstriction activity (total score of 4 tests) ([6]; 0.1 mM, 6 hr after removal): 0; Vasoconstriction activity (total score of 4 tests) ([6]; 0.1 mM, 8 hr after removal): 0; Vasoconstriction activity (total score of 4 tests) ([6]; 0.1 mM, 10 hr after removal): 0; Vasoconstriction activity (total score of 4 tests) ([6]; 0.1 mM, 16 hr after removal): 0; Vasoconstriction activity (total score of 4 tests) ([6]; 0.1 mM, 18 hr after removal): 0; Vasoconstriction activity (total score of 4 tests) ([6]; 0.1 mM, 24 hr after removal): 0; Vasoconstriction activity (total score of 4 tests) ([6]; 1 mM, 2 hr after removal, 4 h application): 0; Vasoconstriction activity (total score of 4 tests) ([6]; 1 mM, 4 hr after removal): 0; Vasoconstriction activity (total score of 4 tests) ([6]; 1 mM, 6 hr after removal): 0; Vasoconstriction activity (total score of 4 tests) ([6]; 1 mM, 8 hr after removal): 0; Vasoconstriction activity (total score of 4 tests) ([6]; 1 mM, 10 hr after removal): 0; Vasoconstriction activity (total score of 4 tests) ([6]; 1 mM, 16 hr after removal): 0; Vasoconstriction activity (total score of 4 tests) ([6]; 1 mM, 18 hr after removal): 0; Vasoconstriction activity (total score of 4 tests) ([6]; 1 mM, 24 hr after removal): 0; Vasoconstriction activity alone (in words) ([6]; by itself, concentration range 0.1 to 1 mM, human skin, listed as HC): do not yield any detectable activity; also recorded: no activity; Class [3]: 1
C[C@@H]1C[C@H]2[C@@H]3CCC4=CC(=O)C=C[C@]4(C)[C@@]3(Cl)[C@@H](O)C[C@]2(C)[C@@]1(O)C(=O)CCl [Mometasone]		88			
C[C@]12C=CC(=O)C=C1CCC1C2[C@@H](O)C[C@@]2(C)C1CC[C@]2(O)C(=O)O (stereo partly shown) [Δ1-CA GYKI-24762, Δ^1-cortienic acid]			52 ± 10	50	IC50 [5]: > 1000 nM
COC(=O)[C@@]1(O)CCC2C3CCC4=CC(=O)C=C[C@]4(C)C3[C@@H](O)C[C@@]21C (stereo partly shown) [Δ1-CA-Me GYKI-24776, Δ^1-CA, methyl ester]			31 ± 11	30	IC50 [5]: > 1000 nM
